The values below come from ChEMBL document CHEMBL1201862, “PubChem BioAssay data set” (2004).

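Where inhibition never reached the appropriate level, the endpoint shown equals the highest concentration tested. Otherwise, values were interpolated linearly from a five-concentration, 48-hour dose response in 96-well plates. GI50: concentration for 50% inhibition of growth.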 Activity calls are given as the source filed them. Rule as the data show it: active = GI50 up to about 1.1 µM and inactive = higher.

Some test systems named below: SF-539; LOX IMVI; SF-295; ACHN; NCI-H23; HT-29; KM12; SNB-75; MOLT-4; DU-145; COLO 205; MDA-MB-231; UACC-62; HCT-15; OVCAR-8; RXF 393; A498; SK-MEL-2; UACC-257; K562.
Common to all, as to experiment: inhibition of tumour cell growth, NCI panel, 48 h

For `CC[N+](C)(CC)CCN1C(=O)c2ccccc2S1(=O)=O`, the GI50 in the assay on SF-539, in the assay with LOX IMVI, with SF-295, in the assay with ACHN, in the assay with NCI-H23 and in the assay with HT-29 was > 100 µM (inactive) in each case. In addition, the GI50 was > 100 µM (inactive) with KM12; > 100 µM (inactive) in the assay with SNB-75; 39.8 µM (inactive) with MOLT-4; > 100 µM (inactive) with DU-145; > 100 µM (inactive) in the assay on COLO 205; > 100 µM (inactive) in the assay on MDA-MB-231. The GI50 with UACC-62 is > 100 µM (inactive); in the assay with HCT-15 it was greater than 100 µM; in the assay on OVCAR-8 it was > 100 µM (inactive); in the assay with RXF 393 it was > 100 µM (inactive); in the assay with A498, > 100 µM (inactive); in the assay with SK-MEL-2, > 100 µM (inactive). Also, in the assay with UACC-257, the GI50 is > 100 µM (inactive).

Take `CC1(C2(C)OC(=O)c3ccccc32)OC(=O)c2ccccc21` (stereo not drawn): the GI50 in the assay on SF-539, in the assay with LOX IMVI, in the assay with SF-295, in the assay with ACHN, with NCI-H23 and with HT-29 was > 100 µM (inactive) throughout. Moreover, the GI50 was > 100 µM (inactive) in the assay on KM12; > 100 µM (inactive) in the assay on SNB-75; 83.8 µM (inactive) in the assay with MOLT-4; > 100 µM (inactive) with DU-145; > 100 µM (inactive) in the assay on COLO 205; > 100 µM (inactive) in the assay with MDA-MB-231. The GI50 with UACC-62 was > 100 µM (inactive); in the assay with HCT-15 it was greater than 100 µM; in the assay on OVCAR-8, > 100 µM (inactive); with RXF 393 it was > 100 µM (inactive); in the assay on A498 it was > 100 µM (inactive); in the assay on SK-MEL-2 it was > 100 µM (inactive). Also, the GI50 in the assay with UACC-257 was > 100 µM (inactive).

As to `Cc1ccc(S(=O)(=O)N/N=C2\CCCCCCCCCCC2CN(C)C)cc1` (stereo not drawn), the GI50 in the assay on SF-539 was 17.1 µM (inactive); with K562 it was 13.2 µM (inactive); in the assay on LOX IMVI, 17.1 µM (inactive); in the assay with SF-295, 16.8 µM (inactive); in the assay on ACHN, 20.1 µM (inactive); in the assay on NCI-H23, 23 µM (inactive). Also, the GI50 is 15.5 µM (inactive) with HT-29; 17.9 µM (inactive) in the assay with KM12; 26.7 µM (inactive) in the assay on MOLT-4; 18.5 µM (inactive) in the assay on DU-145; 17.4 µM (inactive) in the assay on COLO 205; 18.9 µM (inactive) with MDA-MB-231. Besides, the GI50 in the assay with UACC-62 is 18.2 µM (inactive); in the assay on HCT-15, 15 µM; in the assay with OVCAR-8 it was 16.8 µM (inactive); in the assay with RXF 393 it was 11.6 µM (inactive); in the assay on A498, 17.7 µM (inactive); in the assay with SK-MEL-2, 10.6 µM (inactive). Also, the GI50 in the assay on UACC-257 was 15 µM (inactive).

In the case of `NCC1OC(OC2C(N)CC(N)C(O)C2OC2OC(CO)C(O)C2O)C(N)C(O)C1O` (stereo not drawn), the GI50 is > 100 µM (inactive) in the assay with SF-539; > 100 µM (inactive) in the assay on K562; > 50 µM (inactive) in the assay with LOX IMVI; > 100 µM (inactive) in the assay with SF-295; > 50 µM (inactive) in the assay on ACHN; > 100 µM (inactive) with NCI-H23. For the same molecule, the GI50 was > 50 µM (inactive) in the assay with HT-29; > 50 µM (inactive) in the assay on KM12; 27.8 µM (inactive) with SNB-75; > 50 µM (inactive) in the assay with MOLT-4; > 100 µM (inactive) in the assay on DU-145; > 50 µM (inactive) in the assay with MDA-MB-231. The GI50 in the assay with UACC-62 is > 100 µM (inactive); in the assay on HCT-15, greater than 100 µM; in the assay on OVCAR-8, > 50 µM (inactive); in the assay on RXF 393, > 50 µM (inactive); with A498, > 50 µM (inactive); in the assay on SK-MEL-2, > 50 µM (inactive). Also, in the assay on UACC-257, the GI50 is > 50 µM (inactive).

With `CN1C(=O)C(C(=O)Nc2ccccn2)C2C[C@@]1(C)Oc1ccccc12` (stereo partly drawn), the GI50 with K562 is > 100 µM (inactive); in the assay with LOX IMVI, > 100 µM (inactive); in the assay on SF-295 it was > 100 µM (inactive); in the assay with ACHN it was 0.861 µM (active); with NCI-H23 it was > 100 µM (inactive); with HT-29, > 100 µM (inactive). For the same molecule, the GI50 in the assay on KM12 was > 100 µM (inactive); in the assay on SNB-75, > 100 µM (inactive); in the assay with MOLT-4 it was 62.7 µM (inactive); in the assay with DU-145, > 100 µM (inactive); with COLO 205, > 100 µM (inactive); with MDA-MB-231, > 100 µM (inactive). Moreover, the GI50 with UACC-62 is 12 µM (inactive); with HCT-15, greater than 100 µM; in the assay with OVCAR-8, > 100 µM (inactive); in the assay with RXF 393, > 100 µM (inactive); with A498 it was 11.1 µM (inactive); with SK-MEL-2, > 100 µM (inactive). In the assay on UACC-257, the GI50 was > 100 µM (inactive).

For `Cc1[nH]c2ncn(Nc3ccccc3)c(=N)c2c1Cc1ccccc1`, the GI50 is > 100 µM (inactive) in the assay on SF-539; 0.0578 µM (active) in the assay on K562; 10.7 µM (inactive) in the assay on LOX IMVI; 4.22 µM (inactive) with ACHN; 31.8 µM (inactive) in the assay with NCI-H23; 2.6 µM (inactive) in the assay with HT-29. Also, the GI50 was 5.31 µM (inactive) in the assay on KM12; 71.3 µM (inactive) in the assay on SNB-75; 35.6 µM (inactive) in the assay with MOLT-4; 35.4 µM (inactive) with DU-145; 0.0998 µM (active) in the assay on COLO 205; 61.7 µM (inactive) in the assay with MDA-MB-231. Besides, the GI50 was 0.0254 µM (active) in the assay with UACC-62; 4.34 µM with HCT-15; 32.9 µM (inactive) with OVCAR-8; 30.6 µM (inactive) in the assay on RXF 393; 33 µM (inactive) in the assay on A498; 0.142 µM (active) in the assay with SK-MEL-2. Besides, the GI50 with UACC-257 is 0.462 µM (active).

As to `FC(F)(F)c1cc(N(C2c3ccccc3C=Cc3ccccc32)P(Cl)Cl)cc(C(F)(F)F)c1`, the GI50 with SF-539 is 26.7 µM (inactive); in the assay with K562, 15.2 µM (inactive); in the assay on LOX IMVI, 18.5 µM (inactive); in the assay with SF-295 it was 19 µM (inactive); in the assay on ACHN it was 17.5 µM (inactive); in the assay on NCI-H23, 18 µM (inactive). Also, the GI50 was 24.5 µM (inactive) with HT-29; 21.4 µM (inactive) with KM12; 19.3 µM (inactive) with SNB-75; 13.1 µM (inactive) in the assay on MOLT-4; 19.3 µM (inactive) in the assay on DU-145; 22.2 µM (inactive) in the assay on COLO 205. In addition, the GI50 with MDA-MB-231 was 18.6 µM (inactive); in the assay on HCT-15, 5.78 µM; in the assay with OVCAR-8, 17.6 µM (inactive); in the assay with RXF 393 it was 13.8 µM (inactive); in the assay with A498 it was 26.9 µM (inactive); in the assay on SK-MEL-2 it was 18.7 µM (inactive). Also, the GI50 in the assay on UACC-257 is 18.3 µM (inactive).

For the molecule `C(CCCCc1nnc(N2CCCCC2)o1)CCCc1nnc(N2CCCCC2)o1`, the GI50 in the assay on SF-539, in the assay on K562, in the assay with LOX IMVI, with SF-295, in the assay with ACHN and with NCI-H23 was > 100 µM (inactive) throughout. The GI50 in the assay with HT-29, with KM12, in the assay with SNB-75, in the assay on MOLT-4, in the assay with DU-145 and in the assay with COLO 205 was > 100 µM (inactive) throughout. Also, the GI50 in the assay with MDA-MB-231 is > 100 µM (inactive); in the assay with HCT-15 it was greater than 100 µM; in the assay with OVCAR-8, > 100 µM (inactive); with RXF 393, > 100 µM (inactive); with A498, > 100 µM (inactive); in the assay on SK-MEL-2, > 100 µM (inactive). The GI50 in the assay on UACC-257 was > 100 µM (inactive).

With `CC(C)(C)C(=O)C(Cc1ccccc1)C(=O)C(C)(C)C`, the GI50 in the assay on SF-539 was > 100 µM (inactive); in the assay with K562 it was 55 µM (inactive); in the assay on LOX IMVI it was > 100 µM (inactive); in the assay with SF-295, > 100 µM (inactive); with ACHN, > 100 µM (inactive); with NCI-H23 it was > 100 µM (inactive). In addition, the GI50 is 39.4 µM (inactive) in the assay on HT-29; > 100 µM (inactive) with KM12; > 100 µM (inactive) in the assay with SNB-75; 50.7 µM (inactive) in the assay with MOLT-4; > 100 µM (inactive) in the assay on DU-145; > 100 µM (inactive) in the assay with COLO 205. The GI50 in the assay on MDA-MB-231 was > 100 µM (inactive); in the assay with HCT-15, greater than 100 µM; in the assay on OVCAR-8, > 100 µM (inactive); with RXF 393, 98.6 µM (inactive); with A498, > 100 µM (inactive); in the assay with SK-MEL-2, > 100 µM (inactive). Besides, the GI50 with UACC-257 is > 100 µM (inactive).

As for `OC(CC(O)(C(F)(F)F)C(F)(F)F)c1ccc(C(O)CC(O)(C(F)(F)F)C(F)(F)F)cc1` (stereo not drawn), the GI50 was 15.7 µM (inactive) in the assay on SF-539; 15.9 µM (inactive) with K562; 16.7 µM (inactive) in the assay with LOX IMVI; 18.2 µM (inactive) in the assay on SF-295; 14.4 µM (inactive) in the assay with ACHN; 12.9 µM (inactive) in the assay with NCI-H23. Besides, the GI50 in the assay on HT-29 was 12.3 µM (inactive); in the assay with SNB-75 it was 17.5 µM (inactive); in the assay on MOLT-4, 16.3 µM (inactive); with DU-145 it was 15 µM (inactive); in the assay with MDA-MB-231, 14.3 µM (inactive); with UACC-62, 12.2 µM (inactive). In addition, the GI50 was 20.1 µM in the assay on HCT-15; 15.9 µM (inactive) with OVCAR-8; 15 µM (inactive) in the assay on RXF 393; 12.6 µM (inactive) in the assay with A498; 22.3 µM (inactive) with SK-MEL-2; 18.1 µM (inactive) in the assay on UACC-257.

In the case of `CCOC(=O)C(=CNC(=S)Nc1c(CC)cccc1CC)C(=O)OCC`, the GI50 in the assay with SF-539, in the assay with K562, in the assay on LOX IMVI, with SF-295, with ACHN and with NCI-H23 was > 100 µM (inactive) in each case. The GI50 with HT-29 is > 100 µM (inactive); in the assay with KM12 it was > 100 µM (inactive); in the assay with SNB-75 it was 12.8 µM (inactive); in the assay with MOLT-4, > 100 µM (inactive); in the assay on DU-145, > 100 µM (inactive); in the assay on COLO 205, > 100 µM (inactive). For the same molecule, the GI50 in the assay on MDA-MB-231, with UACC-62, in the assay with OVCAR-8, in the assay with RXF 393, in the assay on A498 and in the assay with SK-MEL-2 was > 100 µM (inactive) throughout. For the same molecule, in the assay with UACC-257, the GI50 is > 100 µM (inactive).
